The values below come from patent US11013228B2, “Method of processing allograft skin for transplantation, and cryopreserved allograft skin produced thereby” (CG BIO CO., LTD., priority 2009, dated 2021).

This experiment concerns pig skin. The experiment is described as follows: TUNEL assay, cell death rate according to sucrose concentration in the cryoprotectant. Type of experiment: cell-based. The following applies: for cell death rate, AVE: average of 6 samples. The procedure:
Because human skin tissue harvested from a donor (cadaver) is prohibited from being used in an experiment, pig skin—which is the closest to human skin—is used for preparing ten (10) of both cryopreserved skins and glycerol-preserved skins according to the following methods of Example and Comparative Example. To investigate the change of the cell death rate according to the difference of sucrose concentration, the cryopreserved allograft skin was prepared by the same method as in the Example except that the sucrose concentration in the cryoprotectant was 5, 10, 15, 20, 25, 30, 35 and 40 wt %, and it was then analyzed by TUNEL assay. TUNEL assay was carried out by using an In Situ Cell Death Detection Kit, Fluorescein (Roche, Germany) according to the manufacturer's instructions, and 4′,6-diamidino-2-phenylindole (DAPI) was used as a fluorescent marker. The results of cell death rate are shown in the following Table 1, and represented in FIG. 6 as a graph.

“And” between values parts separate entries of the source, which are not always exact repeats. Equal values may be shown once.

As for `OC[C@H]1O[C@@](CO)(O[C@H]2O[C@H](CO)[C@@H](O)[C@H](O)[C@H]2O)[C@@H](O)[C@@H]1O` [Sucrose, sucrose], the cell death rate result (sucrose 25 to 40 wt % in the final concentration, Table 1 and FIG. 6) is on record as “quite low”; the cell death rate (sucrose conc. 5 wt % in cryoprotectant, individual samples n 1-6) was 65% and 45% and 36% and 64% and 39% and 41%; the cell death rate (sucrose conc. 10 wt % in cryoprotectant, individual samples n 1-6) was 26% and 49% and 55% and 57% and 56% and 41%; the cell death rate (sucrose conc. 15 wt % in cryoprotectant, individual samples n 1-6) was 25% and 31% and 22% and 47% and 57% and 66%; the cell death rate (sucrose conc. 20 wt % in cryoprotectant, individual samples n 1-6) is 43% and 35% and 21% and 22% and 23% and 68%; the cell death rate (sucrose conc. 25 wt % in cryoprotectant, individual samples n 1-6) is 19% and 23% and 28% and 64% and 12% and 20%. For the same molecule, the cell death rate was 20% (2×) and 23% and 39% and 11% and 5% (sucrose conc. 30 wt % in cryoprotectant, individual samples n 1-6); 30% and 25% and 10% and 23% and 28% and 21% (sucrose conc. 35 wt % in cryoprotectant, individual samples n 1-6); 13% and 36% and 33% and 41% and 26% and 20% (sucrose conc. 40 wt % in cryoprotectant, individual samples n 1-6). In addition, the “cell death rate, AVE” value by setting is: (sucrose conc. 5 wt % in cryoprotectant) 48%; (sucrose conc. 10 wt % in cryoprotectant) 47%; (sucrose conc. 15 wt % in cryoprotectant) 41%; (sucrose conc. 20 wt % in cryoprotectant) 35%; (sucrose conc. 25 wt % in cryoprotectant) 28%; (sucrose conc. 30 wt % in cryoprotectant) 20%. Moreover, the “cell death rate, AVE” value (sucrose conc. 35 wt % in cryoprotectant) stood at 23% and the “cell death rate, AVE” value (sucrose conc. 40 wt % in cryoprotectant) is on record as 28%.
